Reference: ChEMBL document CHEMBL1201862, “PubChem BioAssay data set” (2004)
Calls of active or inactive are those of the source.

Legend:
[1] = biological target: Luciferin 4-monooxygenase (Photinus pyralis, UniProt P08659); test: firefly luciferase enzyme inhibitors, dose response, biochemical, luminescence (AID 1891)
[2] = Luminescence Cell-Based Dose Confirmation HTS to Identify Inhibitors of Platelet Dense Granule Release. [Related pubchem assays: 1663 (Primary HTS), 1678 (Summary of Project)]; assay type: functional
Leucine aminopeptidase = biological target: T1, Leucine aminopeptidase (Plasmodium falciparum 3D7, UniProt Q8IL11); test: P. falciparum M17LAP inhibitors, primary screen, biochemical, fluorogenic H-Leu-NHMec substrate, 1536-well (AID 1619); assay type: functional
T1 sequence (Q8IL11 whole entry): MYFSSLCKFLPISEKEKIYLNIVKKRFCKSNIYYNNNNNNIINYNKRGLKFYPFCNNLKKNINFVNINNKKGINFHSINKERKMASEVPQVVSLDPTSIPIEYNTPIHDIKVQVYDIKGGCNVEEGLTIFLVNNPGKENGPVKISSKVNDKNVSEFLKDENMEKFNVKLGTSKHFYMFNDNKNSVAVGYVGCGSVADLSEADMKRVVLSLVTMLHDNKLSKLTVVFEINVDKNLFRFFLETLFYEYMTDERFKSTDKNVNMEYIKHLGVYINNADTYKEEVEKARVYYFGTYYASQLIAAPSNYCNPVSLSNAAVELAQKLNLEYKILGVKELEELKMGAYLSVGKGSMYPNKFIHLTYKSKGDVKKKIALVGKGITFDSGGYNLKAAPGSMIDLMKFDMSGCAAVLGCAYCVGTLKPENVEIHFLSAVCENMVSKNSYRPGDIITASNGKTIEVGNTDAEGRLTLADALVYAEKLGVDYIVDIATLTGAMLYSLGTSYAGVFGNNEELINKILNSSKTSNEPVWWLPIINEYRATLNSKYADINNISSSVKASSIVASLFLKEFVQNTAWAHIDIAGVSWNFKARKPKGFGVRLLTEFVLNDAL

[3] = biological target: T2, Corticotropin-releasing factor receptor 2/Corticotropin-releasing factor-binding protein (Homo sapiens, UniProt P24387+Q13324); test: Dose Response confirmation of uHTS hits for small molecule antagonists of the CRF-binding protein and CRF-R2 receptor complex.; assay type: functional; settings: read-out: IC50_Mean
T2 sequence (Q13324 whole entry): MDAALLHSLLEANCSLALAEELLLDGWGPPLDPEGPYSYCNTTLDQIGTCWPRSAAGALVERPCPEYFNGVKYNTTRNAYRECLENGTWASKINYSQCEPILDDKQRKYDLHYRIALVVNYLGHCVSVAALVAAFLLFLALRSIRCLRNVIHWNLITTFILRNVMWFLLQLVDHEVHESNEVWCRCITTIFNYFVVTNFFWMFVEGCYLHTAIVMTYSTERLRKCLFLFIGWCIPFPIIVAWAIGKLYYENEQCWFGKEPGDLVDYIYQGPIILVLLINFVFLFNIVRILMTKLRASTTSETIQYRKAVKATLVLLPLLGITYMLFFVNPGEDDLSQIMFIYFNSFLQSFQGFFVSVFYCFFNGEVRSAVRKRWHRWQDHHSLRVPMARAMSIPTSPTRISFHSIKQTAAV
T2 sequence (P24387 whole entry): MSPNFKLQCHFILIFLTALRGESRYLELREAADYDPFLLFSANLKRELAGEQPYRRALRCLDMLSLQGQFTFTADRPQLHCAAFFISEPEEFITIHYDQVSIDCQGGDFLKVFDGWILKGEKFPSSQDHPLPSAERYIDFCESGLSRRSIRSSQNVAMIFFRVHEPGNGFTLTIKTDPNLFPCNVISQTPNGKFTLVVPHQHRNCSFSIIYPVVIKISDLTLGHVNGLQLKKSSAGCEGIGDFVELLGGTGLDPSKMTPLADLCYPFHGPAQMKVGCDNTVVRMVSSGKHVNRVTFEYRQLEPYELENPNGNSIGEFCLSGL

[4] = biological target: T2, Corticotropin-releasing factor receptor 2/Corticotropin-releasing factor-binding protein; test: activators of CRF receptor 2 with binding protein – uHTS hits, confirmation (AID 602473); assay type: functional; settings: read-out: EC50_Mean
[5] = HEp-2 cell cytotoxicity, dose response, cytotoxicity control for RSV inhibitor project, HTS (AID 2410); assay type: functional; settings: human respiratory syncytial virus
cells [6] = assay type: functional, cell-based
cells [7] = assay type: functional, cell-based; remark: listed apart in the source
[8] = NIH-3T3 fibroblast cytotoxicity, dose response, cytotoxicity control, cell-based, fluorescence, Alamar Blue, secondary assay (AID 2327); assay type: functional;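 also: NIH-3T3 mouse fibroblasts cultured with fluconazole at 8 µg/mL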
[9] = C. albicans growth with fluconazole, confirmation, fluorescence, retest (AID 2467); assay type: functional, cell-based
Cytochrome P450 2D6 = Cytochrome P450 2D6 (Homo sapiens, UniProt P10635);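 also: CYP2D6 member of a cytochrome P450 panel assay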
Chain of Cytochrome P450 2D6 (P10635 whole entry): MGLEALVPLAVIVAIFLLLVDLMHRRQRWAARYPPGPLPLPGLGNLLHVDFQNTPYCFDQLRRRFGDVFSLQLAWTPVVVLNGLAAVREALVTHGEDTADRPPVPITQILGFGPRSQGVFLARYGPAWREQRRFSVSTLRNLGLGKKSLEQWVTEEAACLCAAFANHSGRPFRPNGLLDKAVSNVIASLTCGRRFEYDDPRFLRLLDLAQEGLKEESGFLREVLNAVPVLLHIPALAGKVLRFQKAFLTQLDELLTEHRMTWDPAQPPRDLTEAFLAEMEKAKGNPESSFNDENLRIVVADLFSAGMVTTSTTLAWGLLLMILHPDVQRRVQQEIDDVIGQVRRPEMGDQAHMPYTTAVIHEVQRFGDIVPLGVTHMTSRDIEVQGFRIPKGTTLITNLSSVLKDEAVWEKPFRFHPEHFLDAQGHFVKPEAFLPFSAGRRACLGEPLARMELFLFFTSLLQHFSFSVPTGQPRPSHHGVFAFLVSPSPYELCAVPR

Cytochrome P450 2C9 = Cytochrome P450 2C9 (Homo sapiens, UniProt P11712)
Chain of Cytochrome P450 2C9 (P11712 whole entry): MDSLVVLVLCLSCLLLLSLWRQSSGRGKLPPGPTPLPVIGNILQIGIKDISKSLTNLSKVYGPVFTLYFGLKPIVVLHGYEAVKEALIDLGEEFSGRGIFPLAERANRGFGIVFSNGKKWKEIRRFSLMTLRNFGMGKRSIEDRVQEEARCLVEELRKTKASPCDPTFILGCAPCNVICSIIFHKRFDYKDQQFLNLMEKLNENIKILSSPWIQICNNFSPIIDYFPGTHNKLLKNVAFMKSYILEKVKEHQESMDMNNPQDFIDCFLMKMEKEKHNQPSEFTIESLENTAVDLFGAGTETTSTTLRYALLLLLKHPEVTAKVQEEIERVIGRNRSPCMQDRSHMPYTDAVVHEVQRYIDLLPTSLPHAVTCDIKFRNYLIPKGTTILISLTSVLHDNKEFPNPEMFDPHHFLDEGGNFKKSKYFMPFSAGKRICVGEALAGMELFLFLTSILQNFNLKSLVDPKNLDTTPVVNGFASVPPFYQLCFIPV

Prothrombin = Prothrombin (Homo sapiens, UniProt P00734); test: Thrombin 1536 HTS Dose Response Confirmation. [Related pubchem assays: 1046 (Thrombin 1536 HTS; hits were confirmed in this assay)]; assay type: functional
Cytochrome P450 2C19 = Cytochrome P450 2C19 (Homo sapiens, UniProt P33261); test: Cytochrome panel assay with activity outcomes. Panel member name: p450-cyp2c19 Compounds with AC50 equal or less than 10 uM are considered active; assay type: functional; settings: read-out: AC50
Chain of Cytochrome P450 2C19 (P33261 whole entry): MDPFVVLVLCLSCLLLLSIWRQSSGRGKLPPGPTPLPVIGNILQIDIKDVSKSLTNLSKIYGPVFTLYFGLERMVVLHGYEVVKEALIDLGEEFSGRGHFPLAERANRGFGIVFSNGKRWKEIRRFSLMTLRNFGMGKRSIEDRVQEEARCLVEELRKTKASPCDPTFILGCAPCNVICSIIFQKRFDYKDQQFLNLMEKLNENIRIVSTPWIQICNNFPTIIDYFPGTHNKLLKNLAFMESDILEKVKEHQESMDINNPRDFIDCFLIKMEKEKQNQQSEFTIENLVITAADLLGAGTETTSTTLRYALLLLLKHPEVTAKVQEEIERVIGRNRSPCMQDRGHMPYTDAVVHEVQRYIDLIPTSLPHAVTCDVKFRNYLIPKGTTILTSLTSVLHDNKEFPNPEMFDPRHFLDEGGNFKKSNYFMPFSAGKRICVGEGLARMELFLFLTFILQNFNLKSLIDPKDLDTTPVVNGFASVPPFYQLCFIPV

Cytochrome P450 1A2 = biological target: T3, Cytochrome P450 1A2 (Homo sapiens, UniProt P05177);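 also: PubChem cytochrome P450 panel assay, CYP1A2 panel member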
T3 sequence (P05177 whole entry): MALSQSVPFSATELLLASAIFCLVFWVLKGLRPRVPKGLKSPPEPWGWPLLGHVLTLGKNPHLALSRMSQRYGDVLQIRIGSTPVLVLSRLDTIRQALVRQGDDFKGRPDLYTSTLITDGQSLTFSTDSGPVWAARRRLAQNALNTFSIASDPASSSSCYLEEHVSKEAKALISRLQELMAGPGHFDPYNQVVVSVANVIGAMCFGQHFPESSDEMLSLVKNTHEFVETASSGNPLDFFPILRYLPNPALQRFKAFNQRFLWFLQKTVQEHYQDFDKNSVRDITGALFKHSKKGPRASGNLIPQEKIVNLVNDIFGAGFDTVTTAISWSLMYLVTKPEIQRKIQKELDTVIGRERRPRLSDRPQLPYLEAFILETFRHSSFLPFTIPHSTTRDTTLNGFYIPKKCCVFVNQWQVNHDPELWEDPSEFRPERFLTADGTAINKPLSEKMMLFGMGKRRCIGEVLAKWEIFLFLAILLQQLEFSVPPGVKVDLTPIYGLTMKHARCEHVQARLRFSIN

BJ [10] = test: cytotoxicity toward BJ-TERT fibroblasts, dose response, cell-based, RAS-independent, luminescence (AID 1933); assay type: functional; settings: Homo sapiens
BJ [11] = test: cells; assay type: functional, cell-based; settings: Homo sapiens
BJ [12] = test: cytotoxicity toward BJ-TERT-LT-ST fibroblasts, dose response, cell-based, RAS-independent, luminescence (AID 1935); assay type: functional; settings: Homo sapiens;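 also: BJ fibroblasts immortalized with TERT plus LT and ST oncogenes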
[13] = cytotoxicity toward DRD oncogenic fibroblasts, dose response, cell-based, non-viral oncogenic, luminescence (AID 1934); assay type: functional; settings: Homo sapiens
Paired box protein Pax-8 = Paired box protein Pax-8 (Homo sapiens, UniProt Q06710); test: inhibitors of PAX8-driven TPO luciferase reporter, dose response, RMG-I cells, cherry-pick (AID 687027); assay type: functional, cell-based;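 also: luciferase reporter driven by Pax8 target thyroperoxidase promoter measured by SteadyGlo luminescence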
Chain of Paired box protein Pax-8 (Q06710 whole entry): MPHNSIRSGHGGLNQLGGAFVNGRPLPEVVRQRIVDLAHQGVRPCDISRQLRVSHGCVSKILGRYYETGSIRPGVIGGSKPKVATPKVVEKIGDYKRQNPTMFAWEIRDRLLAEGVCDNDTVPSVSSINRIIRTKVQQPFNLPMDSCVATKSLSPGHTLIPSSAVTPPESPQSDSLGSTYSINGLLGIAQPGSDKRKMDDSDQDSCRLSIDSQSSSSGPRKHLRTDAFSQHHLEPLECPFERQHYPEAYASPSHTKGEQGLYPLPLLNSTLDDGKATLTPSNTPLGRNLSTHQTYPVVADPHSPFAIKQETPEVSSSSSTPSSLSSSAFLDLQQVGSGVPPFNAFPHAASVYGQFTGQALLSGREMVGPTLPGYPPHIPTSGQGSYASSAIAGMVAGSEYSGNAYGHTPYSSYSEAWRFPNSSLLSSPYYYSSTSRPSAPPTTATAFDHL

[14] = microbe, parasite or virus in culture; assay type: functional; settings: Mycobacterium tuberculosis
Cytochrome P450 3A4 = Cytochrome P450 3A4 (Homo sapiens, UniProt P08684);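 also: CYP3A4 tested as one member of a cytochrome P450 panel screen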
Chain of Cytochrome P450 3A4 (P08684 whole entry): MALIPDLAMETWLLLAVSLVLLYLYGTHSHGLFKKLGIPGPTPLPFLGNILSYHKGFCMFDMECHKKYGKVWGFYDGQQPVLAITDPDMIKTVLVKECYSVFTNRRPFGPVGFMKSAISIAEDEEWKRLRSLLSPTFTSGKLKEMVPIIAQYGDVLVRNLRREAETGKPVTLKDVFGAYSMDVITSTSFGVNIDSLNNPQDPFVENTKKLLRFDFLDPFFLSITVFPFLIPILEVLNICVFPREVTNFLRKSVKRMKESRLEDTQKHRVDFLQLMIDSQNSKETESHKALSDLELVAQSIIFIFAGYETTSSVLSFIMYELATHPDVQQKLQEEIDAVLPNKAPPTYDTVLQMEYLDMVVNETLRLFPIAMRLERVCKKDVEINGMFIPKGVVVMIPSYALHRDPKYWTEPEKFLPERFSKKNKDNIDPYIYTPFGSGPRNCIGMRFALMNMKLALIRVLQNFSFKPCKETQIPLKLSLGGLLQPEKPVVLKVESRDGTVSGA

Chain of Luciferin 4-monooxygenase (P08659 whole entry): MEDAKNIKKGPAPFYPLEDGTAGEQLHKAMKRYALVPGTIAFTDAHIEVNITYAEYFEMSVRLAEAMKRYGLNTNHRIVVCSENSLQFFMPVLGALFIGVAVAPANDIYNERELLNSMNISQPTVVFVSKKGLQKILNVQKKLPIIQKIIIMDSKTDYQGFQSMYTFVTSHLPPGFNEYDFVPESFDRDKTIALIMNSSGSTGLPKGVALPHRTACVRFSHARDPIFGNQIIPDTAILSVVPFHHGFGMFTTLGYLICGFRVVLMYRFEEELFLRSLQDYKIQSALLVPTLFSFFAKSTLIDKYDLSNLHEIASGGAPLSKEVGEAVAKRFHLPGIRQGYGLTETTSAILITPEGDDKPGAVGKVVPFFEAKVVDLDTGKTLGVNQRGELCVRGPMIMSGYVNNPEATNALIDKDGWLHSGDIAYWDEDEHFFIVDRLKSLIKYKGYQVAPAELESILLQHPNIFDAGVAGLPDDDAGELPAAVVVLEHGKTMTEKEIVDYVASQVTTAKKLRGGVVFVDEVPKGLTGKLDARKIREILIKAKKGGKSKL

O=C(c1ccc(Cl)cc1)C1CCCN(Cc2ccc(Oc3ncccn3)cc2)C1 (stereo not given)
EC50 [1]: > 112 µM (not active)
EC50 [2]: > 112 µM (not active)

Cc1ccc(NC(=O)CN2C(=O)N/C(=C/c3ccco3)C2=O)cc1
IC50 (Leucine aminopeptidase): 37.8 µM (active)

CC1CN(C(c2ccco2)c2sc3ncnn3c2O)CC(C)O1 (stereo not given)
IC50 [3]: > 47.1 µM (inactive)
EC50 [4]: > 53 µM (inactive)

CCn1cc(C(=O)NCC(OC)OC)c(=O)c2cc(S(=O)(=O)N3CCC(C)CC3)ccc21
CC50 [5]: 11.1 µM (active)
EC50 (cells [6]): > 350 µM (not active)
EC50 (cells [7]): > 350 µM (not active)

Cc1cccc(NC(=O)CN2NS(=O)(=O)c3ccccc3C2=O)c1
IC50 (Leucine aminopeptidase): 7.74 µM (active)

Cc1ccnc(NS(=O)(=O)c2cc([N+](=O)[O-])ccc2C)c1
EC50 (cells [6]): > 350 µM (not active)
EC50 (cells [7]): > 350 µM (not active)

CCn1c(O)nnc1Sc1nc(C)nc2scc(-c3cccs3)c12
EC50 [8]: > 160 µM (inactive)
EC50 [9]: 0.163 µM (active)

O=C(NNC(=S)NC(=O)c1ccccc1[N+](=O)[O-])c1ccc(Cl)cc1Cl
EC50 [8]: > 150 µM (inconclusive)
EC50 [9]: 4.09 µM (active)

O=C(O)C1CCCCC1C(=O)Nc1ccc(Cl)cc1Cl (stereo not given)
IC50 (Leucine aminopeptidase): 14.3 µM (active)

O=C(CN1C(=O)c2ccccc2S1(=O)=O)Nc1ccccc1
IC50 (Leucine aminopeptidase): 24.6 µM (active)
AC50 (Cytochrome P450 2D6): 17.8 µM (inconclusive)
AC50 (Cytochrome P450 2C9): 12.6 µM (inconclusive)

C[C@@H](CO)NC(=O)c1ccc2c3n(nc2c1)-c1ccccc1CO3
EC50 [1]: 16.4 µM (active)
EC50 [2]: 6.93 µM (active)

Nc1n[nH]c(N)c1N=Nc1cccc(F)c1
IC50 (Leucine aminopeptidase): 5.51 µM (active)

COc1ccc(NC(=O)CSc2[nH]c(=O)cc(C)c2C#N)cc1OC
IC50 (Leucine aminopeptidase): 16.2 µM (active)

O=C(O)c1cccc2c1C(=O)N(Cc1ccccc1)C2
IC50 [3]: > 47.1 µM (inactive)
EC50 [4]: > 53 µM (inactive)

CSc1nc(-c2ccccc2)nn1C(=O)c1ccccc1
IC50 (Prothrombin): 0.896 µM (active)
AC50 (Cytochrome P450 2C19): 0.1 µM (inconclusive)
AC50 (Cytochrome P450 1A2): 2.51 µM (inconclusive)
AC50 (Cytochrome P450 2C9): 10 µM (inconclusive)

Cc1ccc(C(=O)CSc2ccc(-c3ccncc3)nn2)cc1
EC50 (cells [6]): > 350 µM (not active)
EC50 (cells [7]): > 350 µM (not active)

O=C(CCCN1C(=O)/C(=C/c2cccc(Br)c2)SC1=S)Nc1cccnc1
EC50 (BJ [10]): 3.12 µM (active)
EC50 (BJ [11]): 25.3 µM (active)
EC50 (BJ [12]): 17.2 µM (active)
EC50 [13]: 9.68 µM (active)
AC50 (Paired box protein Pax-8): 8.92 µM (active)

Cc1ccc(C)c(OCC(=O)O/N=C(\N)c2cccc([N+](=O)[O-])c2)c1
EC50 (cells [6]): > 350 µM (not active)
EC50 (cells [7]): > 350 µM (not active)

NC(=O)COc1ncn(-c2ccccc2)n1
IC50 [3]: > 47.1 µM (inactive)
EC50 [4]: > 53 µM (inactive)

CCCOc1ccc(CNC(=O)c2ccc3c(c2)N(CC)CCS3)cc1
EC50 [1]: > 112 µM (not active)
EC50 [2]: > 112 µM (not active)

O=C(COC(=O)C1CCN(S(=O)(=O)c2ccccc2)CC1)NC(=O)c1ccc(OC(F)F)cc1
IC50 [3]: > 47.1 µM (inactive)
EC50 [4]: > 53 µM (inactive)

CC1COC(=O)C(NNc2ccc(Cl)c(Cl)c2)=N1 (stereo not given)
EC50 [8]: > 160 µM (inactive)
EC50 [9]: 2.17 µM (active)

Cc1cc(NC(=O)CCl)no1
EC50 (BJ [10]): 18 µM (active)
EC50 (BJ [11]): > 150 µM (not active)
CC50 [14]: 19.6 µM (active)
EC50 (BJ [12]): > 75 µM (not active)
EC50 [13]: 21.1 µM (active)

CSc1ncccc1C(=O)N(C)CC(=O)Nc1cccc(F)c1
IC50 [3]: > 47.1 µM (inactive)
EC50 [4]: > 53 µM (inactive)

CC(C)=CCSc1nnc([C@@H](N)Cc2c[nH]c3ccccc23)o1
EC50 (cells [6]): > 350 µM (not active)
EC50 (cells [7]): > 350 µM (not active)

Cc1cc(S(=O)(=O)N2CCCCC2)ccc1OCC(=O)Nc1ccccc1
EC50 [1]: > 112 µM (not active)
EC50 [2]: 19.7 µM (active)

Cc1ccc(S(=O)(=O)N2CC(C)N(C(=O)N3CCOCC3)C2C)cc1 (stereo not given)
EC50 (cells [6]): > 350 µM (not active)
EC50 (cells [7]): > 350 µM (not active)

COc1ccc(S(=O)(=O)N(C)CC(=O)Nc2ccc3c(c2)OCO3)cc1OC
EC50 [1]: > 112 µM (not active)
EC50 [2]: > 112 µM (not active)

CCOC(=O)CSc1n[nH]c(NC(=O)c2cccc(C)c2)n1
IC50 (Prothrombin): 0.586 µM (active)
AC50 (Cytochrome P450 3A4): 5.62 µM (inconclusive)
AC50 (Cytochrome P450 2C9): 25.1 µM (inconclusive)

O=C(CCN1C(=O)/C(=C/c2cccc(Br)c2)SC1=S)Nc1cccnc1
EC50 (BJ [10]): 7.86 µM (inconclusive)
EC50 (BJ [11]): > 150 µM (not active)
EC50 (BJ [12]): > 150 µM (not active)
EC50 [13]: 18.7 µM (active)

COc1ccc(CN2CCS(=O)(=O)CC2)cc1OC
IC50 [3]: > 47.1 µM (inactive)
EC50 [4]: > 53 µM (inactive)

O=C(OCC(=O)N1CCN(c2ccccc2)CC1)c1ccccn1
IC50 [3]: > 47.1 µM (inactive)
EC50 [4]: > 53 µM (inactive)

Cc1nn(-c2ccccc2)c(Cl)c1/C=N/NC(=O)c1[nH]ncc1Br
EC50 [1]: 0.374 µM (active)
EC50 [2]: 3.52 µM (active)

Nc1nnnn1/N=C/c1cccc(Oc2ccccc2)c1
EC50 [8]: > 150 µM (inactive)
EC50 [9]: > 38 µM (not active)

CCOC(=O)C1CCN(/C=N/c2cc(C)on2)CC1
EC50 [1]: > 112 µM (not active)
EC50 [2]: > 112 µM (not active)

CC[C@@H]1C=CC=CC[C@H](C)[C@@H](O)[C@@H](C)C(=O)[C@H](C)[C@@H](O)[C@H](C)C(=O)[C@H](C)[C@@H](O)[C@H](C)C=CC(=O)O[C@H]2[C@@H](C)[C@@H](CC1)O[C@@]1(CC[C@@H](C)[C@@H](C[C@H](C)O)O1)[C@@H]2C [OLIGOMYCIN C]
EC50 [8]: 15.6 µM (active)
EC50 [9]: 0.427 µM (active)
